Tested on: MV-4-11 cells
Experiment: Gene expression microarray analysis (Affymetrix PrimeView) and GSEA
Type: cell-based, human
Parameters: RFU PODN (11730768_x_at) / Fold change /veh PODN (11730768_x_at) / RFU LINC00158 (11744669_a_at) / Fold change /veh LINC00158 (11744669_a_at) / RFU DUSP10 (11751237_a_at) / Fold change /veh DUSP10 (11751237_a_at) / RFU ID3 (11757404_x_at) / Fold change /veh ID3 (11757404_x_at) / RFU PLEKHG5 (11737974_s_at) / Fold change /veh PLEKHG5 (11737974_s_at) / RFU LRRC4B (11730491_at) / Fold change /veh LRRC4B (11730491_at) / RFU GIMAP4 (11747438_a_at) / Fold change /veh GIMAP4 (11747438_a_at) / RFU KRT8 (11758183_x_at) / Fold change /veh KRT8 (11758183_x_at) / RFU CNN1 (11734310_a_at) / Fold change /veh CNN1 (11734310_a_at) / RFU VPS37D (11726825_at) / Fold change /veh VPS37D (11726825_at) / RFU C10orf10 (11716522_x_at) / Fold change /veh C10orf10 (11716522_x_at) / RFU KIR2DL2 /// KIR2DL4 /// KIR2DL5A /// KIR2DL5B /// KIR2DS1 /// KIR2DS2 /// KIR2DS3 /// KIR2DS4 /// KIR3DL3 /// KIR3DL3 /// KIR3DS1 (11738374_at) / Fold change /veh KIR2DL2 /// KIR2DL4 /// KIR2DL5A /// KIR2DL5B /// KIR2DS1 /// KIR2DS2 /// KIR2DS3 /// KIR2DS4 /// KIR3DL3 /// KIR3DL3 /// KIR3DS1 (11738374_at) / RFU C1QL1 (11718748_at) / Fold change /veh C1QL1 (11718748_at) / RFU TMPRSS4 (11747572_a_at) / Fold change /veh TMPRSS4 (11747572_a_at) / RFU HAMP (11756126_x_at) / Fold change /veh HAMP (11756126_x_at) / RFU RNFT2 (11725882_a_at) / Fold change /veh RNFT2 (11725882_a_at) / RFU NR4A2 (11747474_a_at) / Fold change /veh NR4A2 (11747474_a_at) / RFU ABCC12 (11746883_a_at) / Fold change /veh ABCC12 (11746883_a_at) / RFU TMEM136 (11760407_x_at) / Fold change /veh TMEM136 (11760407_x_at) / RFU CLDN22 /// WWC2 (11732394_at) / Fold change /veh CLDN22 /// WWC2 (11732394_at) / RFU HLA-DPB1 (11760878_x_at) / Fold change /veh HLA-DPB1 (11760878_x_at) / RFU SPINT1 (11716480_a_at) / Fold change /veh SPINT1 (11716480_a_at) / RFU GAP43 (11754022_s_at) / Fold change /veh GAP43 (11754022_s_at) / RFU A4GNT (11735810_at) / Fold change /veh A4GNT (11735810_at) / RFU PRB3 (11715151_x_at) / Fold change /veh PRB3 (11715151_x_at) / RFU TUBB4B (11761932_at) / Fold change /veh TUBB4B (11761932_at) / RFU CAPN14 (11732068_a_at) / Fold change /veh CAPN14 (11732068_a_at) / RFU TMCC2 (11721928_a_at) / Fold change /veh TMCC2 (11721928_a_at) / RFU IRGQ (11745062_a_at) / Fold change /veh IRGQ (11745062_a_at) / RFU FAM174B (11720279_a_at) / Fold change /veh FAM174B (11720279_a_at) / RFU TMPRSS4 (11748680_a_at) / Fold change /veh TMPRSS4 (11748680_a_at) / RFU FAM212B (11763350_a_at) / Fold change /veh FAM212B (11763350_a_at) / RFU PLEKHG5 (11743358_a_at) / Fold change /veh PLEKHG5 (11743358_a_at) / RFU ZSCAN30 (11745921_a_at) / Fold change /veh ZSCAN30 (11745921_a_at) / RFU CMKLR1 (11741424_a_at) / Fold change /veh CMKLR1 (11741424_a_at) / RFU LOC101060620 /// MAPK8IP1 (11723275_at) / Fold change /veh LOC101060620 /// MAPK8IP1 (11723275_at) / RFU SPTSSB (11747773_x_at) / Fold change /veh SPTSSB (11747773_x_at) / RFU PRSS12 (11739890_at) / Fold change /veh PRSS12 (11739890_at) / RFU BIN1 (11741810_x_at) / Fold change /veh BIN1 (11741810_x_at) / RFU WNT11 (11732464_a_at) / Fold change /veh WNT11 (11732464_a_at) / RFU C10orf10 (11716521_a_at) / Fold change /veh C10orf10 (11716521_a_at) / RFU C5orf56 (11738089_at) / Fold change /veh C5orf56 (11738089_at) / RFU CYB561 (11721691_x_at) / Fold change /veh CYB561 (11721691_x_at) / RFU ANKRD19P (11752326_a_at) / Fold change /veh ANKRD19P (11752326_a_at) / RFU OR2T12 /// OR2T33 /// OR2T8 (11738714_s_at) / Fold change /veh OR2T12 /// OR2T33 /// OR2T8 (11738714_s_at) / RFU VCAN (11748164_a_at) / Fold change /veh VCAN (11748164_a_at) / RFU JSRP1 (11732532_at) / Fold change /veh JSRP1 (11732532_at) / RFU KRTAP10-11 (11738290_x_at) / Fold change /veh KRTAP10-11 (11738290_x_at) / RFU MYO3A (11730013_a_at) / Fold change /veh MYO3A (11730013_a_at) / RFU EBF3 (11725865_a_at) / Fold change /veh EBF3 (11725865_a_at) / RFU CAMK2N1 (11719241_x_at) / Fold change /veh CAMK2N1 (11719241_x_at) / RFU C5orf56 (11738088_a_at) / Fold change /veh C5orf56 (11738088_a_at) / RFU OLFML3 (11715873_a_at) / Fold change /veh OLFML3 (11715873_a_at) / RFU LOC100653217 /// NTM (11731650_a_at) / Fold change /veh LOC100653217 /// NTM (11731650_a_at) / RFU MAPK11 (11762145_a_at) / Fold change /veh MAPK11 (11762145_a_at) / RFU FIZ1 (11724087_x_at) / Fold change /veh FIZ1 (11724087_x_at) / RFU OASL (11726364_x_at) / Fold change /veh OASL (11726364_x_at) / RFU SOX15 (11748057_x_at) / Fold change /veh SOX15 (11748057_x_at) / RFU CD79A (11719716_a_at) / Fold change /veh CD79A (11719716_a_at) / RFU HIST1H1D (11736915_at) / Fold change /veh HIST1H1D (11736915_at) / RFU CASKIN2 (11723855_a_at) / Fold change /veh CASKIN2 (11723855_a_at) / RFU LOC730098 (11760151_x_at) / Fold change /veh LOC730098 (11760151_x_at) / RFU OR4N2 (11742367_at) / Fold change /veh OR4N2 (11742367_at) / RFU PRRT2 (11749266_a_at) / Fold change /veh PRRT2 (11749266_a_at) / RFU SNX32 (11753110_a_at) / Fold change /veh SNX32 (11753110_a_at) / RFU CDHR5 (11726645_a_at) / Fold change /veh CDHR5 (11726645_a_at) / RFU RCAN1 (11760418_a_at) / Fold change /veh RCAN1 (11760418_a_at) / RFU FAM167A (11723789_a_at) / Fold change /veh FAM167A (11723789_a_at) / RFU FAM26E (11764081_at) / Fold change /veh FAM26E (11764081_at) / RFU ISYNA1 (11749810_s_at) / Fold change /veh ISYNA1 (11749810_s_at) / RFU ACY1 (11761880_at) / Fold change /veh ACY1 (11761880_at) / RFU 11764098_at / Fold change /veh 11764098_at / RFU SAMD14 (11745864_x_at) / Fold change /veh SAMD14 (11745864_x_at) / RFU NPB (11741838_a_at) / Fold change /veh NPB (11741838_a_at) / RFU TMPRSS6 (11731388_a_at) / Fold change /veh TMPRSS6 (11731388_a_at) / RFU KRTAP10-2 (11738614_at) / Fold change /veh KRTAP10-2 (11738614_at) / RFU ARHGAP8 /// PRR5-ARHGAP8 (11727945_x_at) / Fold change /veh ARHGAP8 /// PRR5-ARHGAP8 (11727945_x_at) / RFU KRTAP5-7 /// NADSYN1 (11734609_at) / Fold change /veh KRTAP5-7 /// NADSYN1 (11734609_at) / RFU RASL12 (11751679_a_at) / Fold change /veh RASL12 (11751679_a_at) / RFU CDKN2B (11736163_a_at) / Fold change /veh CDKN2B (11736163_a_at) / RFU PRF1 (11729649_at) / Fold change /veh PRF1 (11729649_at) / RFU, ZNF638 /// ZNF638-IT1 / Fold change vs veh, ZNF638 /// ZNF638-IT1 / RFU, PANK3 / Fold change vs veh, PANK3 / RFU, SH3YL1 / Fold change vs veh, SH3YL1 / RFU, ZEB2 / Fold change vs veh, ZEB2 / RFU, NRIP1 / Fold change vs veh, NRIP1 / RFU, PTTG1IP / Fold change vs veh, PTTG1IP / RFU, CAPN2 / Fold change vs veh, CAPN2 / RFU, MED14 / Fold change vs veh, MED14 / RFU, SNORA58 / Fold change vs veh, SNORA58 / RFU, C1orf63 / Fold change vs veh, C1orf63 / RFU, LRRFIP1 / Fold change vs veh, LRRFIP1 / RFU, NDUFAF7 / Fold change vs veh, NDUFAF7 / RFU, SLC12A2 / Fold change vs veh, SLC12A2 / RFU, IBTK / Fold change vs veh, IBTK / RFU, ESF1 / Fold change vs veh, ESF1 / Fold change vs veh, TMEM50B / RFU, TAOK1 / Fold change vs veh, TAOK1 / RFU, ACBD3 / Fold change vs veh, ACBD3 / RFU, TMA16 / Fold change vs veh, TMA16 / RFU, RWDD3 / Fold change vs veh, RWDD3 / RFU, BCAT1 / Fold change vs veh, BCAT1 / RFU, EDEM3 / Fold change vs veh, EDEM3 / RFU, TMEM33 / Fold change vs veh, TMEM33 / RFU, WDR75 / Fold change vs veh, WDR75 / RFU, AHCTF1 / Fold change vs veh, AHCTF1 / RFU, TFRC / Fold change vs veh, TFRC / RFU, ZDHHC17 / Fold change vs veh, ZDHHC17 / RFU, NOM1 / Fold change vs veh, NOM1 / RFU, ARL8B / Fold change vs veh, ARL8B / RFU, ZBTB11 / Fold change vs veh, ZBTB11 / RFU, TAMM41 / Fold change vs veh, TAMM41 / RFU, KIAA1704 /// LOC100996395 / Fold change vs veh, KIAA1704 /// LOC100996395 / RFU, ING1 / Fold change vs veh, ING1 / RFU, TRMT61B / Fold change vs veh, TRMT61B / RFU, FUBP3 / Fold change vs veh, FUBP3 / RFU, TP53 / Fold change vs veh, TP53 / RFU, TNKS2 / Fold change vs veh, TNKS2 / RFU, ZFP14 / Fold change vs veh, ZFP14 / RFU, ACTR2 / Fold change vs veh, ACTR2 / RFU, PPP3R1 / Fold change vs veh, PPP3R1 / RFU, PIK3R1 / Fold change vs veh, PIK3R1 / RFU, HNRNPA1 / Fold change vs veh, HNRNPA1 / RFU, RNF170 / Fold change vs veh, RNF170 / RFU, ZNF28 / Fold change vs veh, ZNF28 / RFU, RNGTT / Fold change vs veh, RNGTT / RFU, OGT / Fold change vs veh, OGT / RFU, BRD1 / Fold change vs veh, BRD1 / RFU, MARS / Fold change vs veh, MARS / RFU, ZNF655 / Fold change vs veh, ZNF655 / RFU, FAHD1 / Fold change vs veh, FAHD1 / RFU, BDP1 / Fold change vs veh, BDP1 / RFU, LRRCC1 / Fold change vs veh, LRRCC1 / RFU, ARID1A / Fold change vs veh, ARID1A / RFU, ZNF146 / Fold change vs veh, ZNF146 / RFU, ZNF330 / Fold change vs veh, ZNF330 / RFU, GPN3 / Fold change vs veh, GPN3 / RFU, C9orf123 / Fold change vs veh, C9orf123 / RFU, N4BP2L2 / Fold change vs veh, N4BP2L2 / RFU, ARFIP1 / Fold change vs veh, ARFIP1 / RFU, FAM179B / Fold change vs veh, FAM179B / RFU, BCL10 / Fold change vs veh, BCL10 / RFU, UHRF1BP1L / Fold change vs veh, UHRF1BP1L / RFU, BET1 / Fold change vs veh, BET1 / RFU, CNOT2 / Fold change vs veh, CNOT2 / RFU, ZNF268 / Fold change vs veh, ZNF268 / Fold change vs veh, ZNF507 / RFU, DGCR2 / Fold change vs veh, DGCR2 / RFU, WDSUB1 / Fold change vs veh, WDSUB1 / Fold change vs veh, HSP90B1 /// MIR3652 / RFU, ADSS / Fold change vs veh, ADSS / RFU, GK / Fold change vs veh, GK / RFU, ZNF148 / Fold change vs veh, ZNF148 / RFU, TAF9 / Fold change vs veh, TAF9 / RFU, SLC1A5 / Fold change vs veh, SLC1A5 / RFU, SLMO2 / Fold change vs veh, SLMO2 / RFU, ABCC4 / Fold change vs veh, ABCC4 / RFU, LOC101060439 /// RAP1B / Fold change vs veh, LOC101060439 /// RAP1B / RFU, RFX7 / Fold change vs veh, RFX7 / RFU, GTPBP10 / Fold change vs veh, GTPBP10 / RFU, CNEP1R1 / Fold change vs veh, CNEP1R1 / RFU, BIVM-ERCC5 /// ERCC5 / Fold change vs veh, BIVM-ERCC5 /// ERCC5 / RFU, ILF3 / Fold change vs veh, ILF3 / RFU 11762660_at / Fold change /veh 11762660_at / RFU VCAN (11757783_s_at) / Fold change /veh VCAN (11757783_s_at) / RFU DDX43 (11728927_at) / Fold change /veh DDX43 (11728927_at) / RFU KRT8 (11758188_x_at) / Fold change /veh KRT8 (11758188_x_at) / RFU NKD1 (11759106_at) / Fold change /veh NKD1 (11759106_at) / RFU SRD5A1 (11742802_a_at) / Fold change /veh SRD5A1 (11742802_a_at) / RFU TPSAB1 /// TPSB2 (11721975_s_at) / Fold change /veh TPSAB1 /// TPSB2 (11721975_s_at) / RFU GSTM3 (11746129_a_at) / Fold change /veh GSTM3 (11746129_a_at) / RFU IL23R (11737362_x_at) / Fold change /veh IL23R (11737362_x_at) / RFU TMEM51 (11727254_a_at) / Fold change /veh TMEM51 (11727254_a_at) / RFU PIWIL2 (11732686_x_at) / Fold change /veh PIWIL2 (11732686_x_at) / RFU ORM1 (11744905_x_at) / Fold change /veh ORM1 (11744905_x_at) / RFU CCDC152 (11743942_at) / Fold change /veh CCDC152 (11743942_at) / RFU ECM1 (11717891_a_at) / Fold change /veh ECM1 (11717891_a_at) / RFU IL23R (11748794_a_at) / Fold change /veh IL23R (11748794_a_at) / RFU TNFAIP8L3 (11732012_x_at) / Fold change /veh TNFAIP8L3 (11732012_x_at) / RFU MBOAT4 (11741988_at) / Fold change /veh MBOAT4 (11741988_at) / RFU 11764193_at / Fold change /veh 11764193_at / RFU TMEM53 (11763286_at) / Fold change /veh TMEM53 (11763286_at) / RFU MAGEB2 (11727129_at) / Fold change /veh MAGEB2 (11727129_at) / RFU TMEM200A (11744735_a_at) / Fold change /veh TMEM200A (11744735_a_at) / RFU CCDC152 (11751479_a_at) / Fold change /veh CCDC152 (11751479_a_at) / RFU FAM211A (11726209_a_at) / Fold change /veh FAM211A (11726209_a_at) / RFU RGS16 (11746705_a_at) / Fold change /veh RGS16 (11746705_a_at) / RFU VCAN (11755009_s_at) / Fold change /veh VCAN (11755009_s_at) / RFU RHOB (11743442_s_at) / Fold change /veh RHOB (11743442_s_at) / RFU RGS16 (11720943_a_at) / Fold change /veh RGS16 (11720943_a_at) / RFU RGS16 (11720944_at) / Fold change /veh RGS16 (11720944_at) / RFU, VPS4B / Fold change vs veh, VPS4B / RFU, CREB1 / Fold change vs veh, CREB1 / RFU, DNAJC13 / Fold change vs veh, DNAJC13 / RFU, GNAQ / Fold change vs veh, GNAQ / RFU, CDK5R1 / Fold change vs veh, CDK5R1 / RFU, ZRANB3 / Fold change vs veh, ZRANB3 / RFU, CUL4A / Fold change vs veh, CUL4A / RFU, CCNY / Fold change vs veh, CCNY / RFU, UFL1 / Fold change vs veh, UFL1 / RFU, COG3 / Fold change vs veh, COG3 / RFU, DIAPH2 / Fold change vs veh, DIAPH2 / RFU, SKA2 / Fold change vs veh, SKA2 / RFU, AFF3 / Fold change vs veh, AFF3 / RFU, LMF1 / Fold change vs veh, LMF1 / RFU, IPO11 / Fold change vs veh, IPO11 / RFU, DFFB / Fold change vs veh, DFFB / RFU, FOXP1 / Fold change vs veh, FOXP1 / RFU, CARD8 / Fold change vs veh, CARD8 / RFU, STRN3 / Fold change vs veh, STRN3 / RFU, ADK / Fold change vs veh, ADK / RFU, RASSF2 / Fold change vs veh, RASSF2 / RFU, WIPF1 / Fold change vs veh, WIPF1 / RFU, LARP1B / Fold change vs veh, LARP1B / RFU, RASA1 / Fold change vs veh, RASA1 / RFU, RB1 / Fold change vs veh, RB1 / RFU, PPFIA1 / Fold change vs veh, PPFIA1 / RFU, MAT2A / Fold change vs veh, MAT2A / RFU, CCT5 / Fold change vs veh, CCT5 / RFU, WDR92 / Fold change vs veh, WDR92 / RFU, CUX1 / Fold change vs veh, CUX1 / RFU, TTC7A / Fold change vs veh, TTC7A / RFU, TMEM135 / Fold change vs veh, TMEM135 / RFU, DEPTOR / Fold change vs veh, DEPTOR / RFU, CPM / Fold change vs veh, CPM / RFU, DNAJB6 / Fold change vs veh, DNAJB6 / RFU, CACNA2D3 / Fold change vs veh, CACNA2D3 / RFU, DTX4 / Fold change vs veh, DTX4 / RFU, TFCP2 / Fold change vs veh, TFCP2 / RFU, GMCL1 /// GMCL1P1 / Fold change vs veh, GMCL1 /// GMCL1P1 / RFU, AEBP2 / Fold change vs veh, AEBP2 / RFU, SNHG1 /// SNORD22 /// SNORD25 /// SNORD26 /// SNORD27 /// SNORD28 /// SNORD29 /// SNORD31 / Fold change vs veh, SNHG1 /// SNORD22 /// SNORD25 /// SNORD26 /// SNORD27 /// SNORD28 /// SNORD29 /// SNORD31 / Fold change (Aza/veh), C12orf56 (ProbeSet 11735607_a_at) / Fold change (ACY-1035/veh), C12orf56 (ProbeSet 11735607_a_at) / Fold change (Aza/veh), FGFR1OP (ProbeSet 11751329_s_at) / Fold change (ACY-1035/veh), FGFR1OP (ProbeSet 11751329_s_at) / Fold change (Aza/veh), VPS36 (ProbeSet 11739960_a_at) / Fold change (ACY-1035/veh), VPS36 (ProbeSet 11739960_a_at) / RFU SYPL1 (11715823_x_at) / Fold change /veh SYPL1 (11715823_x_at) / RFU IGFBP7 (11715501_s_at) / Fold change /veh IGFBP7 (11715501_s_at) / RFU REEP3 (11722064_at) / Fold change /veh REEP3 (11722064_at) / RFU IGLL1 (11728026_x_at) / Fold change /veh IGLL1 (11728026_x_at): dose or concentration left out as unconfirmed
Details: MV-4-11 cells, 48 hours

Nc1ccc(-c2cccs2)cc1NC(=O)c1ccc2c(c1)cc(C1CC1)n2CCN1CCOCC1 [ACY-1035]
Fold change /veh ZSCAN30 (11745921_a_at): 1.04

— PMC5218480 (PLoS ONE, 2017)
